Reference: patent US20230130403A1, “METHODS OF TREATMENT WITH S1P RECEPTOR MODULATORS” (PRIOTHERA SAS, priority 2021, published 2023)

How the values were obtained:
[1] = system: hematological cytotoxicity; test: Hematological cytotoxicity in vitro; assay type: cell-based; settings: therapeutic concentrations in vitro
Excerpt: (§1) KRP203 reduces lymphocyte counts in peripheral blood by more than 80%.

[2] = system: mice; test: Acute toxicity in mice; assay type: in vivo
[3] = system: rats; test: Acute toxicity in rats; assay type: in vivo
[4] = system: rabbit skin; test: Skin irritation; assay type: in vivo
[5] = system: human cytochrome P450 isoenzymes; test: Inhibition of cytochrome P450 isoenzymes in vitro; assay type: in vitro ADME
Method: The in vivo ratio of phosphorylated KRP203 to KRP203 in plasma was up to 45 in rat. As the metabolic activities on KRP203 in human blood and hepatocytes were lower than those of other species, the metabolic clearance of KRP203 in man is expected be lower than that in rat and dog. […] KRP230 formed low amounts of covalent drug-protein adducts in human hepatocytes in vitro. Due to the low levels detected ([…] at 3 hours) in-vitro adduct formation is unlikely to be associated with clinical relevant findings at low dose levels (e.g. below 10 mg).
The weak inhibitory effect of ciclosporin on hepatic CYP3A4 is unlikely to relevantly impact the PK of KRP203.

[6] = system: guinea pig papillary muscle preparation; test: APD in guinea pig papillary muscle preparation; settings: concentrations of 3 μM
Excerpt: (§2) Based on the available in vitro and in vivo data, except for the potential to cause a negative chronotropic effect and some mild increase in blood pressure, there is no indication that KRP203 would cause arrhythmia or QT prolongation in man.

[7] = molecular target: CYP3A4 via the human PXR receptor (Homo sapiens, UniProt O75469); test: CYP3A4 induction via PXR; assay type: in vitro ADME
Chain of CYP3A4 via the human PXR receptor (O75469 whole entry): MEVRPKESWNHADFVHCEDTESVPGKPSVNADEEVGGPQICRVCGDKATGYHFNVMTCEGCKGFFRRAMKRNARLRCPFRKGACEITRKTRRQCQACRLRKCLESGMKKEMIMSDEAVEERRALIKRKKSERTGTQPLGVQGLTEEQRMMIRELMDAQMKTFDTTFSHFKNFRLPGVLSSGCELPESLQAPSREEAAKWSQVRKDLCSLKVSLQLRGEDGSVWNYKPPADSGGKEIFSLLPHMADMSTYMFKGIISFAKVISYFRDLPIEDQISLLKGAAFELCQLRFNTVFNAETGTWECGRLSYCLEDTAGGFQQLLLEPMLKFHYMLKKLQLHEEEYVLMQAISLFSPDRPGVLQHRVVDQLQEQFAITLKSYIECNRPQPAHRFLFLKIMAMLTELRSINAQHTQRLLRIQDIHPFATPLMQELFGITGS

[8] = system: liver; test: Genomic profiling of the liver in a 2-week exploratory toxicity study in rats; assay type: in vivo, rat
[9] = system: QT prolongation; test: QT prolongation in telemetered dogs; assay type: in vivo, dog
Excerpt: as §2

[10] = system: heart rate; test: Heart rate in isolated rabbit heart or guinea pig
Excerpt: as §2

[11] = system: eye irritation; test: Eye irritation; settings: in vivo
[12] = system: neuropharmacological effects; test: Safety pharmacology: neuropharmacological effects in rats; assay type: in vivo, rat; settings: doses up to 2000 mg/kg, except some piloerection
[13] = system: lymphocyte counts in peripheral blood; test: Reduction of lymphocyte counts in peripheral blood; settings: in vivo
Excerpt: as §1

[14] = rat, in vivo
[15] = system: QT prolongation; test: QT prolongation in anaesthetized guinea pigs; assay type: in vivo, guinea pig
Excerpt: as §2

[16] = system: dogs; test: Acute toxicity in dogs; assay type: in vivo, dog
Method: No mortality was seen following single oral dosing in dogs up to 2000 mg/kg.

[17] = system: dogs; test: Repeat-dose toxicity studies in dogs; assay type: in vivo
Excerpt: Transitory activation of phagocytic cells and increased secretion of soluble markers by these cells is considered a main contributing factor to smooth muscle hypertrophy/hyperplasia.

[18] = system: respiratory function in dogs; test: Safety pharmacology: respiratory function in dogs; assay type: in vivo, dog; settings: doses up to 20 mg/kg (highest dose tested)
Excerpt: as §2

## NC(CO)(CO)CCc1ccc(Sc2cccc(OCc3ccccc3)c2)cc1Cl [KRP203, 2-amino-2-[4-(3-benzyloxyphenylthio)-2-chlorophenyl] ethyl-propane-1,3-diol]
[1]
  exhibits hematological cytotoxicity: does not
[2]
  intravenous dose producing lethality: above 50 mg/kg
[3]
  intravenous dose producing lethality: above 50 mg/kg
  oral dose producing lethality: 1000 mg/kg
[4]
  skin irritation: not irritating
[5]
  effect on cytochromes P450 enzymes and transporters: lack of effect
[5]; in vitro tests
  potential in inhibiting the activity of human cytochrome P450 isoenzymes: did not show relevant potential
[6]
  APD prolongation: No APD prolongation
[7]
  no significant induction of CYP3A4 via the human PXR receptor up to concentration: ≤ 6.15 µM
[8]
  hepatotoxicity-related changes in genomic profiling of the liver: did not indicate any hepatotoxicity-related changes
[9]
  QT prolongation: No indication for QT prolongation
[10]
  potential to decrease heart rate, extrapolated exposure: 20.1 µM
[11]
  eye irritation: marked eye irritation
[12]
  neuropharmacological effects: no adverse neuropharmacological effects
[13]
  reduction of lymphocyte counts in peripheral blood: more than 80%
[14]; both, 13 weeks
  increase of exposure at the end of the 13-week treatment compared to single dose: 2-5 fold
[14]
  proportionality between exposure and dose: apparent proportionality between exposure and dose
[15]
  QT prolongation: No indication for QT prolongation
[16]
  no mortality following single oral dosing up to: up to 2000 mg/kg
[17]; 26- and 52-week dog toxicity studies
  gastro-intestinal findings: gastro-intestinal tract disturbance with soft/mucoid stools and diarrhea occurred in males only at the high dose level
[17]; dogs, up to 52-week
  no mortality up to daily dose: ≤ 15 mg/kg
[18]
  effects on respiratory function: no significant effects
